Assays:
[1] = compared to previously-known omeprazole form B; cited from earlier work
[2] = Stability testing of omeprazole samples under stress/accelerated aging, evaluated by absorbance (Ph Eur); format: physicochemical; settings: omeprazole form C obtained by the disclosed process; no numerical data printed
Procedure: The stability of omeprazole samples was determined by a standard procedure for testing the substances in pharmaceutical industry (CPMP/ICH/2736/99). […] Determination of absorbance, measured according to Ph Eur method (PhEur 3 Suppl 2000), is used as the criterion for evaluation of the sample quality during stability testing.

Row | SMILES | hygroscopicity [1] | photostability [1] | thermodynamic stability [1] | stability according to the standard protocol for characterization of stability of a pharmaceutical active substance [2]
1 | COc1ccc2[nH]c([S+]([O-])Cc3ncc(C)c(OC)c3C)nc2c1 (stereo not shown) [omeprazole form A, 5-methoxy-2-[[(4-methoxy-3,5-dimethyl-2-pyridinyl)methyl]sulfinyl]-1H-benzimidazole] | better | better | better | 
2 | COc1ccc2[nH]c([S+]([O-])Cc3ncc(C)c(OC)c3C)nc2c1 (stereo not shown) [omeprazole form C, 5-methoxy-2-[[(4-methoxy-3,5-dimethyl-2-pyridinyl)methyl]sulfinyl]-1H-benzimidazole] |  |  |  | stable according to the standard protocol

Reference: patent US7553856B2, “Crystalline form of omeprazole” (Lek Pharmaceuticals d.d., priority 2001, dated 2009)
